Measurements from ChEMBL document CHEMBL2176932, “De novo cyclic pseudopeptides containing aza-β3-amino acids exhibiting antimicrobial activities” (J Med Chem, 2012).
≈ marks a conversion by molar mass, not a printed value.

Key:
[1] = Selectivity ratio of MHC for sheep RBC to MIC for Escherichia coli ATCC 25922; format: functional
[2] = Selectivity ratio of MHC for sheep RBC to MIC for Staphylococcus aureus ATCC 25923; format: functional
[3] = Selectivity ratio of HC50 for sheep RBC to MIC for Escherichia coli ATCC 25922; format: functional
[4] = Selectivity ratio of HC50 for sheep RBC to MIC for Staphylococcus aureus ATCC 25923; format: functional
[5] = Toxicity in sheep RBC assessed as hemolytic activity at 100 uM after 1 hr; format: cell-based, Ovis aries, Erythrocyte; details: sheep red blood cells, read-out: Activity
[6] = Toxicity in sheep RBC assessed as hemolytic activity after 1 hr; format: cell-based, Ovis aries, Erythrocyte; details: sheep red blood cells
Aeromonas caviae = assay: Antibacterial activity against Aeromonas caviae ATCC 15648 after 48 hrs by microtiter broth dilution method; format: functional; details: ATCC 15648, 48 h
Klebsiella aerogenes = assay: Antibacterial activity against Enterobacter aerogenes ATCC 13048 after 48 hrs by microtiter broth dilution method; format: functional; details: ATCC 13048, 48 h
Klebsiella oxytoca = assay: Antibacterial activity against Klebsiella oxytoca CIP 7932 after 48 hrs by microtiter broth dilution method; format: functional; details: CIP 7932, 48 h
Pseudomonas aeruginosa = assay: Antibacterial activity against Pseudomonas aeruginosa ATCC 27853 after 48 hrs by microtiter broth dilution method; format: functional; details: ATCC 27853, 48 h
Salmonella enterica = assay: Antibacterial activity against Salmonella enterica ATCC 13076 after 48 hrs by microtiter broth dilution method; format: functional; details: ATCC 13076, 48 h
Escherichia coli = assay: Antibacterial activity against Escherichia coli ATCC 25922 after 48 hrs by microtiter broth dilution method; format: functional; details: ATCC 25922, 48 h
Listeria monocytogenes = assay: Antibacterial activity against Listeria monocytogenes SOR 100 after 48 hrs by microtiter broth dilution method; format: functional; details: SOR 100, 48 h
Staphylococcus aureus = assay: Antibacterial activity against Staphylococcus aureus ATCC 25923 after 48 hrs by microtiter broth dilution method; format: functional; details: ATCC 25923, 48 h
Lactococcus garvieae = assay: Antibacterial activity against Lactococcus garvieae ATCC 43921 after 48 hrs by microtiter broth dilution method; format: functional; details: ATCC 43921, 48 h
Micrococcus luteus = assay: Antibacterial activity against Micrococcus luteus ATCC 10240 after 48 hrs by microtiter broth dilution method; format: functional; details: ATCC 10240, 48 h
Streptococcus equinus = assay: Antibacterial activity against Streptococcus equinus ATCC 5623 after 48 hrs by microtiter broth dilution method; format: functional; details: ATCC 5623, 48 h
Enterococcus faecalis = assay: Antibacterial activity against Enterococcus faecalis CIP 186 after 48 hrs by microtiter broth dilution method; format: functional; details: CIP 186, 48 h
Priestia megaterium = assay: Antibacterial activity against Bacillus megaterium ATCC 10778 after 48 hrs by microtiter broth dilution method; format: functional; details: ATCC 10778, 48 h
[7] = Toxicity in sheep RBC assessed as minimal hemolytic concentration after 1 hr; format: cell-based, Ovis aries; details: erythrocyte

Row | Structure (SMILES) | MIC (Aeromonas caviae) [µM] | MIC (Klebsiella aerogenes) [µM] | MIC (Klebsiella oxytoca) [µM] | MIC (Pseudomonas aeruginosa) [µM] | MIC (Salmonella enterica) [µM] | MIC (Escherichia coli) [µM] | MIC (Listeria monocytogenes) [µM] | MIC (Staphylococcus aureus) [µM] | MIC (Lactococcus garvieae) [µM] | MIC (Micrococcus luteus) [µM] | MIC (Streptococcus equinus) [µM] | MIC (Enterococcus faecalis) [µM] | MIC (Priestia megaterium) [µM] | Selectivity ratio [1] | Selectivity ratio [2] | Selectivity ratio [3] | Selectivity ratio [4] | hemolysis at 1 h, 100 µM [5] [%] | HC50 at 1 h [6] [µM] | MHC [7] [µM]
1 | N=C(N)NCCC[C@@H]1NC(=O)CN(CCCCN)NC(=O)CN(Cc2ccc3ccccc3c2)NC(=O)[C@H](Cc2ccccc2)NC(=O)CN(Cc2ccc3ccccc3c2)NC1=O | > 100 | 100 (≈ 87.1 µg/mL) | > 100 | 50 (≈ 43.6 µg/mL) | 100 (≈ 87.1 µg/mL) | 100 (≈ 87.1 µg/mL) | 25 (≈ 21.8 µg/mL) | 50 (≈ 43.6 µg/mL) | 100 (≈ 87.1 µg/mL) | 6.25 (≈ 5.44 µg/mL) | 12.5 (≈ 10.9 µg/mL) | > 100 | 3.12 (≈ 2.72 µg/mL) | 1 | 2 | 1 | 2 | 1 | > 100 | 
2 | C[C@@H](O)[C@@H]1NC(=O)CN(CCCCN)NC(=O)[C@H](Cc2ccccc2)NC(=O)CN(Cc2cccc3ccccc23)NC(=O)[C@H](CO)NC(=O)CN(CCCCN)NC(=O)[C@H](CO)NC(=O)CN(CCCCN)NC1=O | > 100 | > 100 | > 100 | 100 (≈ 106 µg/mL) | > 100 | 100 (≈ 106 µg/mL) | > 100 | > 100 | > 100 | > 100 | > 100 | > 100 | > 100 |  |  |  |  | 0 | > 100 | 
3 | CC(C)CN1CC(=O)N[C@@H](Cc2c[nH]c3ccccc23)C(=O)NN(CC(C)C)CC(=O)N[C@@H](CCCCN)C(=O)NN(CCCCN)CC(=O)N[C@@H](Cc2c[nH]c3ccccc23)C(=O)N1 | > 100 | > 100 | > 100 | > 100 | > 100 | > 100 | > 100 | > 100 | > 100 | 50 (≈ 45 µg/mL) | 100 (≈ 90 µg/mL) | > 100 | 25 (≈ 22.5 µg/mL) |  |  |  |  | 0 | > 100 | 

Continued, in another order:

Row | MIC (Aeromonas caviae) [µM] | MIC (Klebsiella aerogenes) [µM] | MIC (Klebsiella oxytoca) [µM] | MIC (Pseudomonas aeruginosa) [µM] | MIC (Salmonella enterica) [µM] | MIC (Escherichia coli) [µM] | MIC (Listeria monocytogenes) [µM] | MIC (Staphylococcus aureus) [µM] | MIC (Lactococcus garvieae) [µM] | MIC (Micrococcus luteus) [µM] | MIC (Streptococcus equinus) [µM] | MIC (Enterococcus faecalis) [µM] | MIC (Priestia megaterium) [µM] | Structure (SMILES) | Selectivity ratio [1] | Selectivity ratio [2] | Selectivity ratio [3] | Selectivity ratio [4] | hemolysis at 1 h, 100 µM [5] [%] | HC50 at 1 h [6] [µM] | MHC [7] [µM]
4 | > 100 | 25 (≈ 21.5 µg/mL) | 50 (≈ 43.1 µg/mL) | 50 (≈ 43.1 µg/mL) | 50 (≈ 43.1 µg/mL) | 50 (≈ 43.1 µg/mL) | 12.5 (≈ 10.8 µg/mL) | 25 (≈ 21.5 µg/mL) | 50 (≈ 43.1 µg/mL) | 3.12 (≈ 2.69 µg/mL) | 6.25 (≈ 5.38 µg/mL) | 50 (≈ 43.1 µg/mL) | 3.12 (≈ 2.69 µg/mL) | CC(C)C[C@@H]1NC(=O)CN(Cc2ccc(-c3ccccc3)cc2)NC(=O)[C@H](CCCCN)NC(=O)CN(CCCCN)NC(=O)CN(Cc2ccc(-c3ccccc3)cc2)NC1=O | 0.5 | 1 | 2 | 4 | 30 | > 100 | 25
5 | > 100 | > 100 | > 100 | > 100 | > 100 | > 100 | > 100 | > 100 | > 100 | 25 (≈ 19.1 µg/mL) | 100 (≈ 76.6 µg/mL) | > 100 | 25 (≈ 19.1 µg/mL) | CC(C)C[C@@H]1NC(=O)CN(Cc2cccc3ccccc23)NC(=O)[C@H](CCCNC(=N)N)NC(=O)CN(CCCNC(=N)N)NC(=O)[C@H](CC(C)C)NC1=O |  |  |  |  | 0 | > 100 | 
6 | > 100 | > 100 | > 100 | > 100 | > 100 | > 100 | > 100 | > 100 | > 100 | 100 (≈ 84.2 µg/mL) | > 100 | > 100 | 50 (≈ 42.1 µg/mL) | CC(C)CN1CC(=O)N[C@@H](Cc2c[nH]c3ccccc23)C(=O)NN(CC(C)C)CC(=O)N[C@@H](CCCCN)C(=O)NN(CCCCN)CC(=O)N[C@@H](CCCCN)C(=O)N1 |  |  |  |  | 0 | > 100 | 
7 | > 100 | > 100 | > 100 | 100 (≈ 80.9 µg/mL) | 100 (≈ 80.9 µg/mL) | > 100 | 100 (≈ 80.9 µg/mL) | > 100 | > 100 | 6.25 (≈ 5.06 µg/mL) | 25 (≈ 20.2 µg/mL) | > 100 | 12.5 (≈ 10.1 µg/mL) | CC(C)C[C@@H]1NC(=O)CN(Cc2ccc3ccccc3c2)NC(=O)[C@H](CCCCN)NC(=O)CN(CCCCN)NC(=O)CN(Cc2ccc3ccccc3c2)NC1=O |  |  |  |  | 0 | > 100 | 
